Test results: US20080312287A1, “Compound and Methods For the Treatment of Cancer and Malaria” (University of Washington, priority 2005, published 2008)

How the values were obtained:
PfPFT = target: T1, PfPFT (Plasmodium falciparum, UniProt Q8I503+Q8IHP6); experiment: PfPFT inhibition, scintillation proximity assay with partially purified PfPFT; type: biochemical
T1 sequence (Q8I503 1-521): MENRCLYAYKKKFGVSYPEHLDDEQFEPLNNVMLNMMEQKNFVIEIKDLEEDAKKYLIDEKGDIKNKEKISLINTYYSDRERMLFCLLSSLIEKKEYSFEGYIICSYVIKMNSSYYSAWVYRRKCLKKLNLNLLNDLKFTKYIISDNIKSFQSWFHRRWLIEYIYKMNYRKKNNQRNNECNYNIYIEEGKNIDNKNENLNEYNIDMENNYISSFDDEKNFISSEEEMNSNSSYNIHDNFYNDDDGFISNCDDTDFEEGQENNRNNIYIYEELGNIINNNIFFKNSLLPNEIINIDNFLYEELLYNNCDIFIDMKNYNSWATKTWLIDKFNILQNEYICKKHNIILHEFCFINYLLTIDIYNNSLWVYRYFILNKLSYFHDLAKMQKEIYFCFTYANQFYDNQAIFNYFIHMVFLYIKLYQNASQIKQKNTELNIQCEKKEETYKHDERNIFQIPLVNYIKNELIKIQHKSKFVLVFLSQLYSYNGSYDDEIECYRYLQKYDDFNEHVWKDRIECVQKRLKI
T1 sequence (Q8IHP6 1-923): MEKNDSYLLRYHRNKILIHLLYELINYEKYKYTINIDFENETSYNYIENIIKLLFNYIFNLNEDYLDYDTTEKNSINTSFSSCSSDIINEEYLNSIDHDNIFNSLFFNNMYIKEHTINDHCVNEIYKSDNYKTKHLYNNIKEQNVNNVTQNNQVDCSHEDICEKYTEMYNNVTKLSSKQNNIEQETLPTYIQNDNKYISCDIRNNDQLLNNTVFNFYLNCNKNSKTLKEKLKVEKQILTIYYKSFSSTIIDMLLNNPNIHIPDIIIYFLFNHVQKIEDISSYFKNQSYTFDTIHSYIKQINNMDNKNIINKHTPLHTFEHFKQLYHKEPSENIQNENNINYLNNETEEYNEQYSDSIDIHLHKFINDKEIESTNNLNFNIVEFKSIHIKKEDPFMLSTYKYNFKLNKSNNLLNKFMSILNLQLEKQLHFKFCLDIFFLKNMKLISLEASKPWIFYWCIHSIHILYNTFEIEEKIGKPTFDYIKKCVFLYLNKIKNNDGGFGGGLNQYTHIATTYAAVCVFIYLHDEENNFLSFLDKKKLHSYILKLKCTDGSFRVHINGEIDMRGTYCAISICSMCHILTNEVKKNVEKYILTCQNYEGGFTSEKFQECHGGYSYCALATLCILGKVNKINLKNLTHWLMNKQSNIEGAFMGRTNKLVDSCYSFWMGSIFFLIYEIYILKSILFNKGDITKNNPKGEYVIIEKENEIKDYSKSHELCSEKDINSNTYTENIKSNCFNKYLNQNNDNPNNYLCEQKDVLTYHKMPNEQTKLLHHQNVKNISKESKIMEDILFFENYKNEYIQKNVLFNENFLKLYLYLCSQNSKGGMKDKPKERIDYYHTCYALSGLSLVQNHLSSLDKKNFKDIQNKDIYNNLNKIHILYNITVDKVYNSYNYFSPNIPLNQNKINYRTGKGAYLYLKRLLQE

Rat FTase = Rat FTase (Rattus norvegicus, UniProt Q02293+Q04631); experiment: Rat farnesyltransferase IC50 determination; type: biochemical; conditions: concentration decreasing transferase activity twofold
P. falciparum 3D7 = experiment: P. falciparum ED50 determination, [3H]-hypoxanthine incorporation, strain 3D7; type: cell-based, Plasmodium falciparum; conditions: Plasmodium falciparum, 3D7, strain 3D7; concentration decreasing hypoxanthine incorporation into parasites twofold; read-out: ED50 3D7
Method in brief: (§1)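 Cultures at 0.5% parasitemia and 0.5% hematocrit, in RPMI with 20% human A+ plasma, were exposed to compound for 48 h at 37° C under 5% CO2/5% O2. [3H]-hypoxanthine was then added for 24 h more. Incorporation, corrected for uninfected erythrocytes and normalised to DMSO wells, gave ED50 by linear regression.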

P. falciparum K1 = experiment: P. falciparum ED50 determination, [3H]-hypoxanthine incorporation, strain K1; type: cell-based, Plasmodium falciparum; conditions: Plasmodium falciparum, K1, strain K1; concentration decreasing hypoxanthine incorporation into parasites twofold; read-out: ED50 K1
Method in brief: as §1

Caco-2 cells = experiment: Caco-2 apparent permeability; conditions: apparent permeability coefficient
Description: Absorption. Caco-2 cells cultured on a semi-permeable membrane form a highly functionalized epithelial barrier, with remarkable similarity to small intestinal epithelial cells, including high levels of brush border hydrolases and well developed junctional complexes.

[1] = Liver microsome metabolism (rat); conditions: female, microsomes
Description: (§2) Microsome metabolism. Liver microsome metabolism assays were performed with female pooled microsomes from BD Biosciences (20 mg/mL). Reaction wells containing: phosphate buffer (232 μL, 0.6 M), MgCl2 (12.0 μL, 0.1 M), EDTA (0.8 μL, 0.5 M), 10x NADPH regenerating system (40.0 μL), Glucoide-6-phosphate deghydrogenase (0.8 μL, 500 U/mL), milliq water (267.8 μL), and liver microsomes (10.0 μL, 20 mg/mL) were heated at 37° C. for 10 mins. To each reaction well was added inhibitor (200 μM, 2.0 μL) in DMSO. Reaction vessels were quenched with acetonitrile (75 μL) and internal standard at designated time points, and the sample immediately frozen (−20° C.). Metabolites and unreacted inhibitor were quantified by mass spectral analysis.

[2] = Liver microsome metabolism (mouse); conditions: female, microsomes
Description: as §2

## Cn1cnc(S(=O)(=O)N(CCN(Cc2cncn2C)c2ccc(C#N)cc2)CC2CCCCC2)c1 [Compound 8q, 1-Methyl-1H-imidazole-4-sulfonic acid {2-[(4-cyano-phenyl)-(3-methyl-3H-imidazol-4-ylmethyl)-amino]-ethyl}-cyclohexylmethyl-amide]
PfPFT; ratio of rat to Plasmodium PFT activity
  Selectivity: 1.7
PfPFT; read-out: % Inhibition of PfPFT at 5 nM, inhibitor at 5 nM
  inhibition at 0.005 µM: 63%
PfPFT; read-out: % Inhibition of PfPFT at 50 nM, inhibitor at 50 nM
  inhibition at 0.05 µM: 93%
Rat FTase
  IC50: 0.0075 µM
P. falciparum 3D7
  EC50: 0.22 µM
P. falciparum K1
  EC50: 0.85 µM
Caco-2 cells
  CaCo: 1.5 cm · s^−1 × 10^−6
[1]
  half-life at 0.71 µM: 4 min
[2]
  half-life at 0.71 µM: < 5 min
